From PubChem BioAssay (NCI)
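Compound exposure: 48 hours, 5 concentrations, 96-well plates. GI50: concentration for 50% inhibition of growth. TGI: total growth inhibition.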

Key:
Test in all cases: growth of human tumour cells (NCI), 48 h
[1] = system: HL-60(TB) leukemia
[2] = system: OVCAR-8 ovarian
[3] = system: PC-3 prostate
[4] = system: SNB-19 CNS
[5] = system: SK-MEL-2 melanoma
[6] = system: HOP-62 NSCLC
[7] = system: SR leukemia
[8] = system: COLO 205 colon
[9] = system: RXF 393 renal
[10] = system: MCF7 breast
[11] = system: SF-268 CNS
[12] = system: SF-539 CNS
[13] = system: UACC-62 melanoma
[14] = system: NCI-H522 lung
[15] = system: M14 melanoma
[16] = system: SK-OV-3 ovarian
[17] = system: HT29 colon
[18] = system: SK-MEL-28 melanoma
[19] = system: T-47D breast
[20] = system: BT-549 breast
[21] = system: EKVX NSCLC
[22] = system: UO-31 renal
[23] = system: HCT-15 colon
[24] = system: A549 NSCLC
[25] = system: U251 CNS
[26] = system: MOLT-4 leukemia
[27] = system: NCI-H460 lung
[28] = system: OVCAR-3 ovarian
[29] = system: NCI-H226 lung
[30] = system: KM12 colon
[31] = system: TK-10 renal
[32] = system: HOP-92 NSCLC
[33] = system: NCI/ADR-RES ovarian
[34] = system: IGROV1 ovarian
[35] = system: OVCAR-4 ovarian
[36] = system: HS 578T breast
[37] = system: HCT-116 colon
[38] = system: MDA-MB-231 breast
[39] = system: SW-620 colon
[40] = system: OVCAR-5 ovarian
[41] = system: RPMI-8226 leukemia
[42] = system: ACHN renal
[43] = system: LOX IMVI melanoma
[44] = system: HCC-2998 colon
[45] = system: 786-0 renal
[46] = system: CCRF-CEM leukemia
[47] = system: MALME-3M melanoma
[48] = system: SN12C renal
[49] = system: NCI-H23 lung
[50] = system: A498 renal
[51] = system: SF-295 CNS
[52] = system: UACC-257 melanoma
[53] = system: SK-MEL-5 melanoma
[54] = system: MDA-MB-435
[55] = system: K-562 leukemia
[56] = system: SNB-75 CNS

Which GI50 [1] does the source give for `CC12O[C@H](C[C@@H](OC(=O)CCC(=O)O)[C@H]1O)n1c3ccccc3c3c4c(c5c6ccccc6n2c5c31)C(=O)NC4=O` here?
Its GI50 is 9.62 µM.

And the TGI [1]?
Its TGI is 42.4 µM.

And the GI50 [2]?
Its GI50 is 2.65 µM.

And the TGI [2]?
Its TGI is over 50 µM.

And the GI50 [3]?
The GI50 was 3.44 µM.

What about the TGI [3] of the same compound?
Its TGI is over 50 µM.

What about the GI50 [4] of the same compound?
The GI50 was 3.62 µM.

And the TGI [4]?
The TGI was 38.8 µM.

And the GI50 [5]?
The GI50 was 0.464 µM.

And the TGI [5]?
Its TGI is 16.5 µM.

What about the GI50 [6] of the same compound?
Its GI50 is 0.834 µM.

What about the TGI [6] of the same compound?
The TGI was 10.7 µM.

What about the GI50 [7] of the same compound?
The GI50 was 0.505 µM.

And the TGI [7]?
Its TGI is 10.5 µM.

What about the GI50 [8] of the same compound?
The GI50 was 0.902 µM.

What about the TGI [8] of the same compound?
The TGI was 5.26 µM.

What about the GI50 [9] of the same compound?
Its GI50 is 0.598 µM.

What about the TGI [9] of the same compound?
Its TGI is 4.16 µM.

And the GI50 [10]?
Its GI50 is 1.25 µM.

And the TGI [10]?
Its TGI is 10.9 µM.

And the GI50 [11]?
The GI50 was 3.21 µM.

And the TGI [11]?
Its TGI is 23.9 µM.

What about the GI50 [12] of the same compound?
The GI50 was 1.22 µM.

What about the TGI [12] of the same compound?
Its TGI is 3.97 µM.

And the GI50 [13]?
Its GI50 is 0.585 µM.

And the TGI [13]?
Its TGI is 7.2 µM.

And the GI50 [14]?
Its GI50 is 0.602 µM.

And the TGI [14]?
The TGI was 6.92 µM.

What about the GI50 [15] of the same compound?
Its GI50 is 0.239 µM.

What about the TGI [15] of the same compound?
The TGI was 6.54 µM.

And the GI50 [16]?
The GI50 was 0.323 µM.

And the TGI [16]?
Its TGI is 3.44 µM.

And the GI50 [17]?
The GI50 was 1.45 µM.

What about the TGI [17] of the same compound?
The TGI was 17.7 µM.

And the GI50 [18]?
The GI50 was 1.51 µM.

What about the TGI [18] of the same compound?
The TGI was 19.8 µM.

What about the GI50 [19] of the same compound?
Its GI50 is 0.83 µM.

And the TGI [19]?
Its TGI is over 50 µM.

What about the GI50 [20] of the same compound?
Its GI50 is 1.02 µM.

And the TGI [20]?
Its TGI is 7.68 µM.

What about the GI50 [21] of the same compound?
Its GI50 is 7.28 µM.

And the TGI [21]?
The TGI was over 50 µM.

What about the GI50 [22] of the same compound?
Its GI50 is 0.201 µM.

And the TGI [22]?
Its TGI is 3.55 µM.

And the GI50 [23]?
The GI50 was 0.767 µM.

And the TGI [23]?
Its TGI is 16.4 µM.

And the GI50 [24]?
Its GI50 is 1.55 µM.

And the TGI [24]?
The TGI was over 50 µM.

What about the GI50 [25] of the same compound?
Its GI50 is 5.71 µM.

What about the TGI [25] of the same compound?
Its TGI is 17.1 µM.

What about the GI50 [26] of the same compound?
Its GI50 is 0.949 µM.

What about the TGI [26] of the same compound?
The TGI was 18 µM.

And the GI50 [27]?
The GI50 was 1.46 µM.

What about the TGI [27] of the same compound?
Its TGI is 12.2 µM.

And the GI50 [28]?
The GI50 was 1.32 µM.

And the TGI [28]?
The TGI was 14 µM.

What about the GI50 [29] of the same compound?
Its GI50 is 0.738 µM.

What about the TGI [29] of the same compound?
Its TGI is 9.71 µM.

And the GI50 [30]?
The GI50 was 0.285 µM.

What about the TGI [30] of the same compound?
Its TGI is 11.5 µM.

What about the GI50 [31] of the same compound?
Its GI50 is 0.411 µM.

And the TGI [31]?
Its TGI is 10.9 µM.

And the GI50 [32]?
Its GI50 is 0.738 µM.

What about the TGI [32] of the same compound?
Its TGI is 4.77 µM.

And the GI50 [33]?
Its GI50 is 6.24 µM.

What about the TGI [33] of the same compound?
The TGI was 40.8 µM.

What about the GI50 [34] of the same compound?
Its GI50 is 0.664 µM.

What about the TGI [34] of the same compound?
The TGI was 38.8 µM.

What about the GI50 [35] of the same compound?
The GI50 was 5.77 µM.

And the TGI [35]?
The TGI was over 50 µM.

What about the GI50 [36] of the same compound?
The GI50 was 2.43 µM.

And the TGI [36]?
Its TGI is 28.4 µM.

And the GI50 [37]?
Its GI50 is 1.5 µM.

What about the TGI [37] of the same compound?
The TGI was 9.8 µM.

And the GI50 [38]?
The GI50 was 6.3 µM.

What about the TGI [38] of the same compound?
The TGI was 16.2 µM.

What about the GI50 [39] of the same compound?
Its GI50 is 1.43 µM.

What about the TGI [39] of the same compound?
Its TGI is 13.4 µM.

And the GI50 [40]?
The GI50 was 7.87 µM.

And the TGI [40]?
Its TGI is over 50 µM.

What about the GI50 [41] of the same compound?
Its GI50 is 5.98 µM.

And the TGI [41]?
The TGI was 24.3 µM.

What about the GI50 [42] of the same compound?
The GI50 was 0.727 µM.

What about the TGI [42] of the same compound?
The TGI was over 50 µM.

And the GI50 [43]?
Its GI50 is 1.47 µM.

What about the TGI [43] of the same compound?
Its TGI is 7.88 µM.

What about the GI50 [44] of the same compound?
The GI50 was 5.64 µM.

And the TGI [44]?
The TGI was 15.1 µM.

What about the GI50 [45] of the same compound?
Its GI50 is 2.14 µM.

And the TGI [45]?
Its TGI is 11.3 µM.

And the GI50 [46]?
The GI50 was 1.57 µM.

And the TGI [46]?
Its TGI is 13.4 µM.

What about the GI50 [47] of the same compound?
The GI50 was 0.2 µM.

What about the TGI [47] of the same compound?
Its TGI is 2.36 µM.

What about the GI50 [48] of the same compound?
The GI50 was 2.47 µM.

What about the TGI [48] of the same compound?
Its TGI is 24.5 µM.

And the GI50 [49]?
Its GI50 is 1.13 µM.

What about the TGI [49] of the same compound?
Its TGI is 20.3 µM.

What about the GI50 [50] of the same compound?
Its GI50 is 0.168 µM.

What about the TGI [50] of the same compound?
Its TGI is 1.15 µM.

What about the GI50 [51] of the same compound?
The GI50 was 1.5 µM.

What about the TGI [51] of the same compound?
Its TGI is 7.6 µM.

And the GI50 [52]?
The GI50 was 1.52 µM.

And the TGI [52]?
The TGI was 10.6 µM.

What about the GI50 [53] of the same compound?
Its GI50 is 1.41 µM.

What about the TGI [53] of the same compound?
Its TGI is 6.69 µM.

And the GI50 [54]?
The GI50 was 0.708 µM.

And the TGI [54]?
The TGI was 7.08 µM.

And the GI50 [55]?
The GI50 was 5.07 µM.

And the TGI [55]?
The TGI was over 50 µM.

What about the GI50 [56] of the same compound?
Its GI50 is 1.07 µM.

What about the TGI [56] of the same compound?
Its TGI is 7.41 µM.
